Patent US20110200693A1, “INCREASING THE EFFICIENCY OF UTILIZATION OF INGESTED CREATINE” (priority 2007, published 2011)

Legend:
[1] = doses from 8 g/d to 21 g/d during 1 to 14 days; cited from earlier work
[2] = Plasma creatine kinetics after a single ingestion of 2 g creatine (one-open compartmental model); assay type: in vivo, human; conditions: 2 g creatine oral, not influenced by the form ingested
Experimental: The health status questionnaire was filled in again.
Venous blood was collected on heparin as an anticoagulant. The tubes were placed immediately on ice and centrifuged at 3000 g for 6 min at 4° C. […] NaOH 0.1M (90 μL) was added to supernatant (300 μL) to obtain a pH value of about 7.8. Samples were stored at −20° C.
Using a Marquardt algorithm, all kinetics were fitted with the following equation: […]
This equation corresponds to a one-open compartmental model in which ka, kel and tlag are the primary parameters. Knowing their value, new kinetic parameters of plasma creatine were calculated:
Since the bioavailability (F) may not be measured, only the apparent volume of distribution and the apparent clearance can be estimated:
Vd: the apparent volume of distribution (Vd=V/F, L)

In the case of `CN(CC(=O)O)C(=N)N` [creatine], the “fraction of ingested creatine excreted in urine” value [1] is given as 33 to 77 % of the original dose and the “apparent volume of distribution relative to body mass” value [2] is given as “about 75 % of body mass”.
